The data set in a line: Solubility of ketoconazole in solvent media at room temperature. In kind it is physicochemical. Particulars: for Solubility: room temperature (21° C.). As to the method: The solubility of ketoconazole in each of isopropyl alcohol, water and polyethoxylated glyceryl cocoate were established at room temperature (21° C.).
The solubility of ketoconazole in a composition of the present invention, prepared as in Example 1, containing 55% isopropyl alcohol, 35% water and 10% polyethoxylated glyceryl cocoate was also established at room temperature (21° C.).

Take `CC(=O)N1CCN(c2ccc(OCC3COC(Cn4ccnc4)(c4ccc(Cl)cc4Cl)O3)cc2)CC1` (centres unmarked) [ketoconazole, 1-acetyl-4-[4-[2-(2,4-dichlorophenyl)-2-imidazol-1-ylmethyl-1,3-dioxolan-4-ylmethoxy]phenyl]piperazine]: the Solubility by setting is: (in composition of 55% isopropyl alcohol, 35% water and 10% polyethoxylated glyceryl cocoate) 2.8 wt %; (in isopropyl alcohol) 0.4722 wt %; (in polyethoxylated glyceryl cocoate) 0.8682 wt %; (in water) 0.0233 wt %. Further, for the setting “ternary solvent system (water, alcohol, non-ionic surface active agent)”, the “Solubility of ketoconazole in three-component solvent system” value is “up to 3 wt %”.

(Values after patent US7732450B2, “Antifungal ketoconazole composition for topical use” (Boult Wade Tennant, priority 2000, dated 2010).)
